# Results: patent US5786348A, “Methods for preparation and use of 1α,24(S)-dihydroxy vitamin D2” (priority 1995, dated 1998)
# Columns and labels:
# [1] = Preventive treatment of bone mass loss in postmenopausal osteoporotic women; type: in vivo, human; settings: at or above 1.0 μg/day, 24 to 36 months
# Description: A clinical study is conducted with postmenopausal osteoporotic out-patientshaving ages between 55 and 75 years. The study involves up to 120 patients randomly divided into three treatment groups and continues for 24 to 36 months. Two of the treatment groups receive constant dosages of 1α,24(S)-dihydroxy vitamin D2 (u.i.d.; two different dose levels at or above 1.0 μg/day) and the other group receives a matching placebo. All patients maintain a normal intake of dietary calcium (500 to 800 mg/day) and refrain from using calcium supplements. Efficacy is evaluated by pre-and post-treatment comparisons of the patient groups with regard to (a) total body calcium retention, and (b) radial and spinal bone mineral density as determined by dual-photon absorptiometry (DPA) or dual-energy x-ray absorptiometry (DEXA). Safety is evaluated by comparisons of urinary hydroxyproline excretion, serum and urine calcium levels, creatinine clearance, blood urea nitrogen, and other routine determinations.
# [2] = Hypocalcemia and metabolic bone disease in chronic hemodialysis patients; type: in vivo, human; settings: greater than 3.0 μg/day, twelve months
# Description: A twelve-month, double-blind, placebo-controlled clinical trial is conducted with thirty men and women with renal disease who are undergoing chronic hemodialysis. […] Efficacy is evaluated by pre- and post-treatment comparisons of the two patient groups with regard to (a) direct measurements of intestinal calcium absorption, (b) total body calcium retention, (c) radial and spinal bone mineral density, or (d) determinations of serum calcium. Safety is evaluated by regular monitoring of serum calcium.
# [3] = tested on: human cancer cell lines BCA-1 or ZR-75-1 (breast) and COL-1 (colon); test: Antiproliferative activity in human cancer cell lines (thymidine incorporation); type: cell-based; settings: dose-response in breast and colon cancer cell lines
# Description: Dose-response studies are conducted with 1α,24(S)-(OH)2 D2 in a battery of human cancer cell lines. These cell lines include, but are not limited to, the following: BCA-1 or ZR-75-1 (breast) and COL-1 (colon), as described by Shieh, H. L. et al. Chem. Biol. Interact., vol. 81, pp. 35-55 (1982). In this study, appropriate solvents are used as negative controls.
# [4] = Prophylaxis of postmenopausal bone loss in healthy postmenopausal women; type: in vivo, human
# Description: A clinical study is conducted with healthy postmenopausal women having ages between 55 and 60 years. The study involves up to 80 patients randomly divided into two treatment groups, and continues for 24 to 36 months. One treatment group receives a constant dosage of 1α,24(S)-dihydroxy vitamin D2 (u.i.d.; a dose level at or above 1.0 μg/day) and the other receives a matching placebo. The study is conducted as indicated in Example 12 above.
# HL-60 promyelocytes = test: HL-60 cell differentiation assay; type: cell-based; settings: dose-response; acid esterase, NBT reduction, thymidine incorporation
# Description: A dose-response study is conducted with 1α,24(S)-(OH)2 D2 in the HL-60 cell differentiation assay as described by DeLuca and Ostrom (DeLuca, H. F. and ostrem, V. K., Prog. Clin. Biol. Res., vol. 259, pp. 41-55 (1988)). In this study, 1α,25-(OH)2 D3 is used as a positive control and appropriate solvents are used as negative controls. The following variables are evaluated: nonspecific acid esterase activity, nitroblue tetrazolium (NBT) reduction, and thymidine incorporation.
# vitamin D receptor (VDR) = biological target: T1, vitamin D receptor (VDR) (Homo sapiens, UniProt P11473); test: Vitamin D-dependent transcriptional activation: growth hormone production in COS-1 cells co-transfected with VDR plasmid and VDRE-GH reporter; type: cell-based; settings: for Total GH Production: averages of duplicate determinations
# T1 sequence (P11473 1-427): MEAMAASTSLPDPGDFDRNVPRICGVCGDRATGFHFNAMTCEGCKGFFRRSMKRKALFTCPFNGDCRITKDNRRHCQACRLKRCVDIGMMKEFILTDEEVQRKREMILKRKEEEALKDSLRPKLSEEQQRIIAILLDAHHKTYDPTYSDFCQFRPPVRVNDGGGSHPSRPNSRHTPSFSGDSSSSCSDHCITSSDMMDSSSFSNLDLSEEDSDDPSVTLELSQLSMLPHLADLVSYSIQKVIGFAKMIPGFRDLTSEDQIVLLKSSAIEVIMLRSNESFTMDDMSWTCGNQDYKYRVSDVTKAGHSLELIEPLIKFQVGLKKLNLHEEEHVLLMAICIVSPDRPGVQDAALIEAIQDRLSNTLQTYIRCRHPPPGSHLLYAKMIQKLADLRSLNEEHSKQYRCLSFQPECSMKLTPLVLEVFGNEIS
# Description: The biological activity in vitro of chemically synthesized 1α,24(S)-(OH)2 D2 and 1α,24(R)-(OH)2 D2 was measured using a vitamin D-dependent transcriptional activation model system in which a vitamin D receptor (VDR)-expressing plasmid pSG5-hVDR1/3and a plasmid p(CT4)^4 TKGH containing a Growth Hormone (GH)-gene, under the control of a vitamin D-responsive element (VDRE) were co-transfected into Green monkey kidney, COS-1 cells. DNA's for these two vectors were supplied by Dr. Mark Haussler, Department of Biochemistry, University of Arizona, Tucson, Ariz.
# Transfected cells were incubated with vitamin D metabolites and growth hormone production was measured.
# [5] = biological target: T2, vitamin D serum binding protein (DBP) (Rattus norvegicus, UniProt P04276); test: Binding to vitamin D serum binding protein in vitamin D deficient rat serum
# T2 sequence (P04276 17-476): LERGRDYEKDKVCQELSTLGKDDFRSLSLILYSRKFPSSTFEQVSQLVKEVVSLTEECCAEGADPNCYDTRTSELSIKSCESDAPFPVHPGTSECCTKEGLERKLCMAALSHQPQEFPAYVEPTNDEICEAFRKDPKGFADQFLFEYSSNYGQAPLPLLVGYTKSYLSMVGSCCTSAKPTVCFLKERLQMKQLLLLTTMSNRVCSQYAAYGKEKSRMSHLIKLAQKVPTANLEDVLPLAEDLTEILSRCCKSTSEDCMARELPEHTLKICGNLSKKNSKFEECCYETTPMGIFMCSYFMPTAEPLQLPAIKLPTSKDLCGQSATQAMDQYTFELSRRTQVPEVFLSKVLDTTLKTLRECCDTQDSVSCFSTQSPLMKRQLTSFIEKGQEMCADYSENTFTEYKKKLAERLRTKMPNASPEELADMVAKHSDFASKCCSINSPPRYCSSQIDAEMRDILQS
# Description: In addition, the weak binding by the DBP was indicative of more rapid clearance, allowing for low toxicity.
# [6] = inducer molar concentration 5 × 10^-8
# [7] = inducer molar concentration 5 × 10^-9
# [8] = inducer molar concentration 5 × 10^-10
compound,measurement,setting,value
"C=C1/C(=C\C=C2/CCC[C@]3(C)[C@@H]([C@H](C)/C=C/[C@@](C)(O)C(C)C)CC[C@@H]23)C[C@@H](O)C[C@@H]1O [1α,24(S)-(OH)2 D2, 1α,24(S)-dihydroxy vitamin D2]",Incidence of hypercalcemia or hypercalciuria or other metabolic disturbance,[1],insignificant incidence
same,"Total body calcium, radial and spinal bone densities relative to placebo",[1],significantly higher
same,Incidence of hypercalcemia,[2],insignificant incidence
same,Intestinal calcium absorption (double-isotope technique),[2],significantly increases
same,Radial and spinal bone densities relative to baseline,[2],stable
same,Serum calcium levels,[2],normalized
same,Total body calcium relative to baseline,[2],stable values
same,Antiproliferative activity (inhibition of thymidine incorporation),[3],potent (and reversible) antiproliferative activity
same,"Losses in total body calcium, radial or spinal bone densities relative to baseline","[4]; at or above 1.0 μg/day, 24 to 36 months",reduced losses
same,Monitored safety parameters,[4]; long-term administration at or above 1.0 μg/day,confirm the safety
same,Promotion of differentiation of HL-60 promyelocytes to monocytes,HL-60 promyelocytes,potent activity
same,"Activity in the transcriptional activation system relative to 1α,24(R)-(OH)2 D2",vitamin D receptor (VDR); compared with the 24(R) epimer,significantly more activity
same,Net vitamin D-inducible GH-production,vitamin D receptor (VDR); [6],1138 ng/mL
same,Total GH Production,vitamin D receptor (VDR); [6],1182 ng/mL
same,Net vitamin D-inducible GH-production,vitamin D receptor (VDR); [7],1306 ng/mL
same,Total GH Production,vitamin D receptor (VDR); [7],1350 ng/mL
same,Net vitamin D-inducible GH-production,vitamin D receptor (VDR); [8],381 ng/mL
same,Total GH Production,vitamin D receptor (VDR); [8],425 ng/mL
same,"Binding to the vitamin D serum binding protein relative to 1,25-(OH)2 D3","[5]; compared with 1,25-(OH)2 D3",more weakly
same,Binding affinity for the vitamin D serum binding protein,[5]; in words,relatively poor binding affinity
